From patent EP4667458A1 (Kanaph Therapeutics Inc., priority 2023, dated 2024)

Target: T1, SOS1 (Homo sapiens, UniProt Q07889)
T1 construct: adding equal amounts of HIS-SOS1cat (160 nM; Cytoskeleton, US); His; purchased Cytoskeleton, US
T1 sequence (Q07889 564-1049 limits assumed): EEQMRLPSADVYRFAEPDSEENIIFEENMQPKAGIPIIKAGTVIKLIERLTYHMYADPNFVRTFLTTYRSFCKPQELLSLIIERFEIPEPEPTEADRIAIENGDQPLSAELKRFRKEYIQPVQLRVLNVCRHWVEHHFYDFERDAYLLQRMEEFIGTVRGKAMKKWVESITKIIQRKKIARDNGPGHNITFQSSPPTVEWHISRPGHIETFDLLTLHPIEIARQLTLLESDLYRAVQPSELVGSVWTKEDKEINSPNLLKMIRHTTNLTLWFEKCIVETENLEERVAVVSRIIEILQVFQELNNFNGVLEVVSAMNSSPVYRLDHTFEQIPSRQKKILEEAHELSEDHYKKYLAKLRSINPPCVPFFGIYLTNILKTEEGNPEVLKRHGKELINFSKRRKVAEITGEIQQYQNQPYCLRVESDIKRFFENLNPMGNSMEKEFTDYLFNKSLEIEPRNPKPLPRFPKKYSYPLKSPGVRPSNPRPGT
Experiment: SOS-catalyzed nucleotide exchange assay (HTRF, SOS1-mediated GTP loading of KRAS G12D)
Type: biochemical
Details: GST-KRAS G12D, HIS-SOS1cat, EDA-GTP-DY-647P1; compound 128 pM to 10 µM; read-out: SOS-catalyzed nucleotide exchange assay (IC50 range, Grade)
Procedure, shortened: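 SOS1cat (HIS-tagged) preincubated 10 min at room temperature with compound (128 pM-10 µM), then GST-KRAS G12D with anti-GST terbium added; GTP loading tracked as HTRF with a DY-647P1 GTP analogue after 30 min, buffer HEPES pH 7.4. GEF-free wells for normalization; IC50 derived.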

SMILES	IC50 [µM]
C[C@@H](NC(=O)c1ccc(=O)n(C2=CCCCC2)n1)c1cc(N)cc(C(F)(F)F)c1 [Example 65, N-[(1R)-1-[3-amino-5-(trifluoromethyl)phenyl]ethyl]-1-(cyclohex-1-en-1-yl)-6-oxo-1,6-dihydropyridazine-3-carboxamide]	< 1
CC1CC=C(n2nc(C(=O)N[C@H](C)c3cc(N)cc(C(F)(F)F)c3)ccc2=O)CC1 (stereo partly drawn) [Example 66, N-[(1R)-1-[3-amino-5-(trifluoromethyl)phenyl]ethyl]-1-(4-methylcyclohex-1-en-1-yl)-6-oxo-1,6-dihydropyridazine-3-carboxamide]	1 to 10
C[C@@H](NC(=O)c1ccc(=O)n(C2=CCN(S(C)(=O)=O)CC2)n1)c1cc(N)cc(C(F)(F)F)c1 [Example 67, N-[(1R)-1-[3-amino-5-(trifluoromethyl)phenyl]ethyl]-1-(1-methanesulfonyl-1,2,3,6-tetrahydropyridin-4-yl)-6-oxo-1,6-dihydropyridazine-3-carboxamide]	< 1
CC(=O)N1CC=C(n2nc(C(=O)N[C@H](C)c3cc(N)cc(C(F)(F)F)c3)ccc2=O)CC1 [Example 68, 1-(1-acetyl-1,2,3,6-tetrahydropyridin-4-yl)-N-[(1R)-1-[3-amino-5-(trifluoromethyl)phenyl]ethyl]-6-oxo-1,6-dihydropyridazine-3-carboxamide]	< 1
C[C@@H](NC(=O)c1ccc(=O)n(C2=CCCN(S(C)(=O)=O)C2)n1)c1cc(N)cc(C(F)(F)F)c1 [Example 69, N-[(1R)-1-[3-amino-5-(trifluoromethyl)phenyl]ethyl]-1-(1-methanesulfonyl-1,2,5,6-tetrahydropyridin-3-yl)-6-oxo-1,6-dihydropyridazine-3-carboxamide]	1 to 10
C[C@@H](NC(=O)c1ccc(=O)n(C23CC(C2)C3)n1)c1cc(N)cc(C(F)(F)F)c1 [Example 70, N-[(1R)-1-[3-amino-5-(trifluoromethyl)phenyl]ethyl]-1-{bicyclo[1.1.1]pentan-1-yl}-6-oxo-1,6-dihydropyridazine-3-carboxamide]	1 to 10
C[C@@H](NC(=O)c1ccc(=O)n(-c2cccc(CO)c2)c1)c1cc(N)cc(C(F)(F)F)c1 [Example 71, N-[(1R)-1-[3-amino-5-(trifluoromethyl)phenyl]ethyl]-1-[3-(hydroxymethyl)phenyl]-6-oxo-1,6-dihydropyridine-3-carboxamide]	< 1
C[C@@H](NC(=O)c1ccc(=O)n(-c2cccc(C(=O)OC(C)(C)C)c2)c1)c1cc(N)cc(C(F)(F)F)c1 [Example 72, Tert-butyl 3-(5-{[(1R)-1-[3-amino-5-(trifluoromethyl)phenyl]ethyl]carbamoyl}-2-oxo-1,2-dihydropyridin-1-yl)benzoate]	< 1
C[C@@H](NC(=O)c1ccc(=O)n(-c2ccncc2)c1)c1cc(N)cc(C(F)(F)F)c1 [Example 73, N-[(1R)-1-[3-amino-5-(trifluoromethyl)phenyl]ethyl]-2-oxo-2H-[1,4'-bipyridine]-5-carboxamide]	< 1
C[C@@H](NC(=O)c1ccc(=O)n(C2=CCN(S(C)(=O)=O)CC2)c1)c1cc(N)cc(C(F)(F)F)c1 [Example 74, N-[(1R)-1-[3-amino-5-(trifluoromethyl)phenyl]ethyl]-1'-methanesulfonyl-6-oxo-2',3'-dihydro-1'H,6H,6'H-[1,4'-bipyridine]-3-carboxamide]	< 1
C[C@@H](NC(=O)c1ccc(=O)n(-c2cccc(C(=O)N3CCOCC3)c2)c1)c1cc(N)cc(C(F)(F)F)c1 [Example 75, N-[(1R)-1-[3-amino-5-(trifluoromethyl)phenyl]ethyl]-1-[3-(morpholine-4-carbonyl)phenyl]-6-oxo-1,6-dihydropyridine-3-carboxamide]	< 1
C[C@@H](NC(=O)c1ccc(=O)n(-c2cccc(N3CCNC3=O)c2)c1)c1cc(N)cc(C(F)(F)F)c1 [Example 85, N-[(1R)-1-[3-amino-5-(trifluoromethyl)phenyl]ethyl]-6-oxo-1-[3-(2-oxoimidazolidin-1-yl)phenyl]-1,6-dihydropyridine-3-carboxamide]	< 1
C[C@@H](NC(=O)c1ccc(=O)n(-c2cccc(N3CCN(C)C3=O)c2)c1)c1cc(N)cc(C(F)(F)F)c1 [Example 89, N-[(1R)-1-[3-amino-5-(trifluoromethyl)phenyl]ethyl]-1-[3-(3-methyl-2-oxo-imidazolidin-1-yl)phenyl]-6-oxo-pyridine-3-carboxamide]	< 1
C[C@@H](NC(=O)c1ccc(=O)n(-c2cccc(F)c2F)c1)c1cc(N)cc(C(F)(F)F)c1 [Example 94, N-[(1R)-1-[3-amino-5-(trifluoromethyl)phenyl]ethyl]-1-(2,3-difluorophenyl)-6-oxo-1,6-dihydropyridine-3-carboxamide]	< 1
C[C@@H](NC(=O)c1ccc(=O)n(-c2ccc(F)cc2F)c1)c1cc(N)cc(C(F)(F)F)c1 [Example 95, N-[(1R)-1-[3-amino-5-(trifluoromethyl)phenyl]ethyl]-1-(2,4-difluorophenyl)-6-oxo-1,6-dihydropyridine-3-carboxamide]	< 1
C[C@@H](NC(=O)c1ccc(=O)n(-c2cc(F)ccc2F)c1)c1cc(N)cc(C(F)(F)F)c1 [Example 96, N-[(1R)-1-[3-amino-5-(trifluoromethyl)phenyl]ethyl]-1-(2,5-difluorophenyl)-6-oxo-1,6-dihydropyridine-3-carboxamide]	< 1
C[C@@H](NC(=O)c1ccc(=O)n(-c2c(F)cccc2F)c1)c1cc(N)cc(C(F)(F)F)c1 [Example 97, N-[(1R)-1-[3-amino-5-(trifluoromethyl)phenyl]ethyl]-1-(2,6-difluorophenyl)-6-oxo-1,6-dihydropyridine-3-carboxamide]	1 to 10
CC(=O)Nc1cc(-n2cc(C(=O)N[C@H](C)c3cc(N)cc(C(F)(F)F)c3)ccc2=O)ccc1F [Example 113, 1-(3-acetamido-4-fluoro-phenyl)-N-[(1R)-1-[3-amino-5-(trifluoromethyl)phenyl]ethyl]-6-oxo-pyridine-3-carboxamide]	< 1
C[C@@H](NC(=O)c1ccc(=O)n(C2CCCC2)n1)c1cc(N)cc(C(F)(F)F)c1 [Example 115, N-[(1R)-1-[3-amino-5-(trifluoromethyl)phenyl]ethyl]-1-cyclopentyl-6-oxo-1,6-dihydropyridazine-3-carboxamide]	1 to 10
C[C@@H](NC(=O)c1ccc(=O)n(C2CCCCC2)n1)c1cc(N)cc(C(F)(F)F)c1 [Example 116, N-[(1R)-1-[3-amino-5-(trifluoromethyl)phenyl]ethyl]-1-cyclohexyl-6-oxo-1,6-dihydropyridazine-3-carboxamide]	1 to 10
C[C@@H](NC(=O)c1ccc(=O)n(C2CCS(=O)(=O)CC2)n1)c1cc(N)cc(C(F)(F)F)c1 [Example 117, N-[(1R)-1-[3-amino-5-(trifluoromethyl)phenyl]ethyl]-1-(1,1-dioxo-1λ^6-thian-4-yl)-6-oxo-1,6-dihydropyridazine-3-carboxamide]	1 to 10
C[C@@H](NC(=O)c1ccc(=O)n(C2C[C@@H]3CC[C@H]2C3)n1)c1cc(N)cc(C(F)(F)F)c1 (stereo partly drawn) [Example 119, N-[(1R)-1-[3-amino-5-(trifluoromethyl)phenyl]ethyl]-1-[(1S,4R)-bicyclo[2.2.1]heptan-2-yl]-6-oxo-1,6-dihydropyridazine-3-carboxamide]	> 10
C[C@@H](NC(=O)c1ccc(=O)n(C2CCN(S(C)(=O)=O)CC2)n1)c1cc(N)cc(C(F)(F)F)c1 [Example 120, N-[(1R)-1-[3-amino-5-(trifluoromethyl)phenyl]ethyl]-1-(1-methanesulfonylpiperidin-4-yl)-6-oxo-1,6-dihydropyridazine-3-carboxamide]	1 to 10
C[C@@H](NC(=O)c1ccc(=O)n([C@@H]2CCCC[C@H]2O)n1)c1cc(N)cc(C(F)(F)F)c1 [Example 124, N-((R)-1-(3-amino-5-(trifluoromethyl)phenyl)ethyl)-1-((1R,2R)-2-hydroxycyclohexyl)-6-oxo-1,6-dihydropyridazine-3-carboxamide]	1 to 10
C[C@@H](NC(=O)c1ccc(=O)n([C@H]2CCCC[C@@H]2O)n1)c1cc(N)cc(C(F)(F)F)c1 [Example 125, N-((R)-1-(3-amino-5-(trifluoromethyl)phenyl)ethyl)-1-((1S,2S)-2-hydroxycyclohexyl)-6-oxo-1,6-dihydropyridazine-3-carboxamide]	1 to 10
C[C@@H](NC(=O)c1ccc(=O)n(C2=CCN(C)CC2)n1)c1cc(N)cc(C(F)(F)F)c1 [Example 126, N-[(1R)-1-[3-amino-5-(trifluoromethyl)phenyl]ethyl]-1-(1-methyl-1,2,3,6-tetrahydropyridin-4-yl)-6-oxo-1,6-dihydropyridazine-3-carboxamide]	< 1
COC1CC=C(n2nc(C(=O)N[C@H](C)c3cc(N)cc(C(F)(F)F)c3)ccc2=O)CC1 (stereo partly drawn) [Example 127, N-[(1R)-1-[3-amino-5-(trifluoromethyl)phenyl]ethyl]-1-(4-methoxycyclohex-1-en-1-yl)-6-oxo-1,6-dihydropyridazine-3-carboxamide]	1 to 10
